Data: patent US10722467B2, “Remote loading of sparingly water-soluble drugs into liposomes” (ZONEONE PHARMA, INC., priority 2013, dated 2020)
Each block holds one molecule with its values, some of them ahead of it.

Assays:
Format in all cases: physicochemical
[1] = Remote loading of carfilzomib into liposomes (drug/lipid ratio and loading efficiency by HPLC); details: for efficiency of loading: 100 g drug/mol HSPC
Procedure: Ammonium sulfate solution was prepared by dissolving ammonium sulfate solid to a final concentration of 250 mM (500 mequivilents of anion/L) no pH adjustment was made to yield a final pH of 5.6. Sodium sulfate solution (250 mM) was prepared by adding 0.35 g sodium sulfate to 10 mL deionized water.
The liposomes were formed by extrusion. Lipids were dissolved in ethanol at a concentration of 500 mM HSPC (591 mg/mL total lipid) at 65° C. and the 9 volumes of the trapping agent solution heated to 65° C. was added to the ethanol/lipid solution also at 65° C. The mixture was vortexed and transferred to a 10 mL thermostatically controlled (65° C.) Lipex Extruder. The liposomes were formed by extruding 10 times through polycarbonate membranes having 0.1 um pores. After extrusion the liposomes were cooled on ice. The transmembrane electrochemical gradient was formed by purification of the liposomes by dialysis in dialysis tubing having a molecular weight cut off of 12,000-14,000. The samples are dialyzed against 5 mM HEPES, 10% sucrose pH 6.5 (stirring at 4° C.) at volume that is 100 fold greater than the sample volume. The dialysate was changed after 2 h then 4 more times after 12 h each. The conductivity of the liposome solution was measured and was indistinguishable from the dialysis medium ˜40 μS/cm.
(§1) The lipid concentration is determined by measuring the cholesterol by HPLC using an Agilent 1100 HPLC with and Agilent Zorbax 5 um, […], Eclipse XDB-C8 column and a mobile phase of A=0.1% TFA, B=0.1% TFA/MeOH with an isocratic elution of 99% B. The flow rate is 1.0 mL/min, column temperature is 50° C., 10 μL injection and detection by absorbance at 205 nm. The retention time of cholesterol is 4.5 min. The liposome size is measured by dynamic light scattering.
Carfilzomib (Selleck Chemicals) was dissolved in DMSO at a concentration of 10 mg/mL. […] The liposomes were diluted with 50 mM citrate, 10% sucrose pH 4.0 to increase the volume to a point where after addition of the drug the final DMSO concentration is 2%. The carfilzomib/DMSO was added to the diluted liposomes, which were mixed at room temperature then transferred to a 65° C. bath and swirled every 30 s for the first 3 min and then swirled every 5 min over a total heating time of 30 min. All samples were very cloudy when the drug was added and all became clear (same as liposomes with no drug added) after 15 min. After heating for 30 min all samples were placed on ice for 15 min. The loaded liposomes were vortexed and 100 μL of sample was kept as the “before column” and the rest transferred to microcentrifuge tubes and spun at 10,000 RPM for 5 min. The supernatants were purified on a Sephadex G25 column collected and analyzed by HPLC. The HPLC analysis of carfilzomib was performed on the same system as described for analysis of cholesterol. The mobile phase consists of A=0.1% TFA, B=0.1% TFA/MeOH with a gradient elution starting at 50% B and increasing to 83% B in 13 min with 7 min equilibration back to 50% B. The flow rate is 1.0 mL/min, column temperature is 30 C, 10 μl injection and detection by absorbance at 205 nm. The retention time of carfilzomib is 12.2 min. The lipid concentration is determined by analysis of the cholesterol by HPLC. […]
Napthelenedisulfonic acid (NDS) was dissolved in water and titrated with diethylamine to a final pH of 8.0 and concentration of 250 mM (500 mequivilents of anion/L). […]
To ensure complete removal of the DMSO added with carfilzomib, the liposomal carfilzomib samples were dialyzed in dialysis tubing having a molecular weight cut off of 12,000-14,000. The samples are dialyzed against 5 mM HEPES, 10% sucrose pH 6.5 (stirring at 4° C.) at volume that is 100 fold greater than the sample volume. The dialysate was changed after 2 h then 2 more times after 12 h each. The carfilzomib liposomes were again analyzed for drug and lipid concentration as described above. […]

[2] = Carfilzomib solubility as a function of DMSO content (optical density at 600 nm); details: drug 0.2 mg/mL
Procedure: Carfilzomib was added from a stock 10 mg/mL solution in DMSO to 1 mL of a citric acid/DMSO mixture so that the composition of DMSO was 2%, 25%, 50%, 75% and 100%. The final drug concentration was 0.2 mg/mL. The solutions were prepared and measured for optical density at 600 nm. The optical density at 600 nm is a good measure of how turbid or how much scattering material (such as drug precipitates) are in a solution, generally, the more precipitates the higher the absorbance. From FIG. 8 is apparent that at DMSO concentrations below 50% vol/vol (25° C.) and 25% vol/vol (65° C.) the drug remains in a precipitated form. Only when the concentration of DMSO is increased does it become effectively solubilized at this concentration of 0.2 mg/mL.

[3] = Liposome size by dynamic light scattering; details: carfilzomib-loaded liposomes, before lyophilizing
Procedure: as §1
See Example 1, Carfilzomib liposome entrapment by remote loading for details on how the liposomes were made, purified and characterized.

[4] = Reverse gradient-directed drug release from liposomes
Procedure: Liposomes were loaded with carfilzomib as described in Example 1 and were purified into deionized water. The sample was divided into two aliquots. To the first aliquot, concentrated Hepes pH 7.4 and NaCl was added so that the final concentration was 5 mM Hepes, 145 mM NaCl (HBS). To the second aliquot, concentrated ammonium sulfate was added so that the final concentration was 250 mM. No obvious physical changes were initially observed. The samples were then heated at 65° C. for 30 min. The samples were transferred to clean eppendorf tubes and centrifuged for 10,000 rpm for 5 min after which the supernatants and precipitates were separated and tested for carfilzomib content by HPLC assay. Released drug precipitated, liposome encapsulated drug remained in the supernatant. The % carfilzomib released was calculated by […]

[5] = Light scattering at 600 nm during carfilzomib loading
Procedure: Liposomes containing 250 mM ammonium sulfate as trapping agent and 250 mM sodium sulfate as control liposomes which would not remote load drug. The liposomes were prepared and loaded using the procedure described in Example 1 except a disposable polystyrene cuvette was used as the reaction vessel. The scattering of light at 600 nm was measured with a UV/vis spectrophotometer during the loading process.

[6] = Remote loading of aripiprazole into liposomes
Procedure: Liposomes (HSPC/Chol/PEG-DSPE 3/2/0.15 mol/mol/mol) containing 250 mM ammonium sulfate or 250 mM sodium sulfate were diluted in 1 mL of 50 mM citric acid, 10% (wt/wt) sucrose, pH 4.0 to a concentration of 6 mM phospholipid. 0.3 mg of aripiprazole was added from a stock solution of 15 mg/mL in DMSO, so that the final DMSO concentration was 2% (v/v). Fine precipitates were immediately observed after the drug was added to both liposome samples. The samples were heated at 65° C. for 30 min, the cooled on ice. The samples were filtered through a 0.2 um polyethersulfone syringe filter to remove any drug precipitates, followed by purification on a Sephadex G25 column equilibrated with HBS, pH 6.5 to remove any soluble extraliposome drug. The turbid fraction was collected and analyzed for lipid and drug as described above.

[7] = Aripiprazole precipitates from various solvents with liposomes, absorbance at 600 nm; details: drug initially dissolved in DMSO, 1-4-methylpyrrolidone, diethylenemonoethylether or polyethyleneglycol (MW400); 7.5% solvent; ammonium sulfate liposomes; 65°C 30 min
Procedure: Aripiprazole was dissolved in a range of solvents indicated below at 4 mg/mL. Liposomes composed of HSPC/Chol/PEG-DSPE (3/2/0.15 mol/mol/mol) that were prepared in 250 mM ammonium sulfate were used and diluted to 6 mM in Hepes buffered sucrose 10% (wt/wt) (HBSuc pH 6.5). 0.3 mg of drug was introduced by slow addition of each solvent while vortexing. The final solvent concentration was 7.5% for all samples. As controls, the drug was added from each solvent to the same volume of HBSuc pH 6.5 without the liposomes. The samples were heated at 65° C. for 30 min then cooled on ice.

[8] = 500 mM ammonium sulfate liposomes, highest input ratio of Example 10
[9] = [(NH4)2SO4] 250 mM, input drug/HSPC 167.3 g/mol

drug/carrier total lipid weight ratio (highest reached) [1, 8]: 0.4
final drug payload (highest reached) [1, 8]: 469±4.9 g drug/mol HSPC
final drug to lipid ratio ([1]; 500 mM ammonium sulfate, input 639 g drug/mol HSPC): 440±10.2 g drug/mol HSPC
remote loading ([1]; DMSO absent): practically no loading
Drug payload/carrier weight ratio ([1]; [(NH4)2SO4] 250 mM, input drug/HSPC 91.8 g/mol): 0.07 g drug/g total lipid
Drug payload/carrier weight ratio [1, 9]: 0.11 g drug/g total lipid
efficiency [1, 9]: 76.0%
Drug payload/carrier weight ratio ([1]; [(NH4)2SO4] 250 mM, input drug/HSPC 251.8 g/mol): 0.15 g drug/g total lipid
Drug payload/carrier weight ratio ([1]; [(NH4)2SO4] 250 mM, input drug/HSPC 338.1 g/mol): 0.18 g drug/g total lipid
Drug payload/carrier weight ratio ([1]; [(NH4)2SO4] 250 mM, input drug/HSPC 432.8 g/mol): 0.20 g drug/g total lipid
Drug payload/carrier weight ratio ([1]; [(NH4)2SO4] 500 mM, input drug/HSPC 450.6 g/mol): 0.29 g drug/g total lipid
Drug payload/carrier weight ratio ([1]; [(NH4)2SO4] 500 mM, input drug/HSPC 545.9 g/mol): 0.32 g drug/g total lipid
Drug payload/carrier weight ratio ([1]; [(NH4)2SO4] 500 mM, input drug/HSPC 639.2 g/mol): 0.37 g drug/g total lipid
Drug payload/carrier weight ratio ([1]; [(NH4)2SO4] 500 mM, input drug/HSPC 758.7 g/mol): 0.40 g drug/g total lipid
efficiency of loading ([1]; drug from 10 mg/mL DMSO solution added in 5 increments over 1 min while vortexing): 96.3%±1.09%
efficiency of loading ([1]; drug from 10 mg/mL DMSO solution added quickly, 2% DMSO): 97.0%±2.38%
loading capacity, remote loaded (ammonium sulfate) vs sodium sulfate liposomes ([1]; drug input below/at 100 g drug/mol HSPC): > 3 fold
effect of time between precipitate formation and loading on loading efficiency ([1]; liposomes added immediately, after 1 h or 12 h delay): does not have a significant impact
DMSO concentration below which the drug remains in a precipitated form ([2]; 25°C): below 50 % vol/vol
DMSO concentration below which the drug remains in a precipitated form ([2]; 65°C): < 25 % vol/vol
DMSO required to completely dissolve the drug ([2]; 65°C, citric acid/DMSO mixture): > 25 % vol/vol
PDI ([3]; trapping agent (NH4)2SO4, drug added quickly): 0.062
PDI ([3]; trapping agent (NH4)2SO4, drug added slowly): 0.035
PDI ([3]; trapping agent mellitic acid): 0.08
PDI ([3]; trapping agent napthelenedisulfonic acid): 0.039
drug released with reverse gradient vs control with no reverse gradient ([4]; ammonium sulfate vs Hepes buffered saline): 6.5 fold
time to clarification of the solution ([5]; 250 mM ammonium sulfate liposomes, light scattering at 600 nm during loading): ≤ 15 min
Structure (SMILES): CC(C)C[C@H](NC(=O)[C@H](CCc1ccccc1)NC(=O)CN1CCOCC1)C(=O)N[C@@H](Cc1ccccc1)C(=O)N[C@@H](CC(C)C)C(=O)[C@@]1(C)CO1 [carfilzomib]
degradation of released drug by HPLC chromatogram ([4]; after loading and release from liposomes, compared with starting material): no degradation of carfilzomib had taken place
clarification of the precipitate during loading ([5]; 250 mM sodium sulfate control liposomes, light scattering at 600 nm): do not show any clarification of the precipitate

loading efficiency ([6]; drug introduced as SBCD complex (from the pharmaceutical product Abilify), same concentration and loading conditions): 68%
Fold Increase NH4SO4/NaSO4 ([6]; loading into ammonium sulfate vs sodium sulfate liposomes): 49.3 fold
clarification of drug precipitate with liposomes (absorbance at 600 nm) [7]: clarified the drug precipitate
Structure (SMILES): O=C1CCc2ccc(OCCCCN3CCN(c4cccc(Cl)c4Cl)CC3)cc2N1 [aripiprazole]
